Reference: publication PMC6331810, “Novel Coumarin-Containing Aminophosphonatesas Antitumor Agent: Synthesis, Cytotoxicity, DNA-Binding and Apoptosis Evaluation” (Molecules, 2015)

Legend:
CT-DNA [1] = test: Spectrofluorimetric titration with CT-DNA (Stern-Volmer and binding constants); parameters: species or system calf; conditions: from F0/F-1 vs [DNA]; Tris-HCl buffer pH 7.2
Description: The DNA binding properties of compounds 8a–8j were evaluated based on their affinity or interaction with CT-DNA, measured with fluorescence spectrometric titration.
The calibration curve for determination of DNA was constructed by adding different proportion of DNA to a 2.0 × 10^−3 M compound 8j solution (pH = 7.2 Tris-HCl buffer). […] [Q] is the concentration of quencher. KSV is the Stern-Volmer constant and KQ is the bimolecular quenching rate constant. τ0 is the lifetime of the fluorophore in the absence of quencher and for most biomolecules τ0 is about 10^−8 s. The Stern-Volmer constant, KSV, for compound 8j has been determined from the plot of F0/F-1 vs. [DNA] (see Figure 2) and found to be 5.11 × 10^2 M^−1.
When small molecules binding independently to a set of equivalent sites on a macromolecule, the equilibrium between free and bound molecules is given by the equation [28]: (2) lg (F0/F-1) = lgKb + nlg[Q] where Kb and n are the binding constant and the number of binding sites, respectively, which could be got from the curve of lg(F0/F-1) vs. lg[Q]. The plot of lg(F0/F-1) vs. lg[DNA] has been shown in Figure 3 for compound 8j and indicates a simple binding process for the compound.
All fluorescence experiments were carried out on a Perkin-Elmer LS50B luminescence spectrometer. Fluorescence spectra were measured at rt using quartz cells of 1cm path. To the solutions of the drugs (2.0 × 10^−3 M) in 2.5 mL Tris-HCl buffer (pH = 7.2) were added aliquots of CT-DNA (2.0 × 10^−3 M) solution containing drugs (2.0 × 10^−3 M) in 2.5 mL Tris-HCl buffer (pH = 7.2). This operation ensured that the concentration of CT-DNA increased gradually from 0 to 360 µM, while the concentrations of drugs were kept constant. The mixing was achieved by stirring for 10min. Then, the corresponding fluorescence spectra were measured (ex 325 nm, ex/em 1.5 nm/1.5 nm). Binding constants were derived from the modified.

[2] = test system: HUVEC (Human Umbilical Vein Endothelial Cells); test: MTT cytotoxicity assay, HUVEC normal cells; format: cell-based; conditions: no irradiation, mean ± SD of three experiments
Description: (§1) Cell Lines. The following in vitro human cancer cell lines were used: HCT-116 (Human colorectal cells), human KB (human nasopharyngeal carcinoma cells), MGC-803 (human lung adenocarcinoma cell line), HUVEC (Human Umbilical Vein Endothelial Cells). The cell lines (HCT-116, KB, MGC-803 and HUVEC) were purchased from the Cell Resource Center of Shanghai Institutes for Biological Sciences, the Academy of Sciences of China.
(§2) Cell Culture. HCT-116, human KB, MGC-803 and HUVEC cells were cultured in Dulbecco Modified Eagle Medium (DMEM; HyClone, Los Angeles, CA, USA), containing 4.0 mM L-Glutamine and 4500 mg/L Glucose, supplemented with 10% (v/v) foetalbovine serum (FBS; HyClone). The cell culturemedia was supplemented with penicillin/streptomycin at 100 Units/mL as adherent monolayers. Cell cultures were kept in a humidified incubator with 5% CO2 at 37 °C. Stock solutions were prepared in dimethyl sulfoxide (DMSO) and further dilutions were made with fresh culture medium. The concentration of DMSO in the final culture medium was 1%, which had no effect on the cell viability.
(§3) MTT Assay. Chemosensitivity was assessed using 3-(4,5-dimethylthiazol-2-yl)-2,5-diphenyl tetrazolium bromide (MTT) assay. Briefly, exponentially growing HCT-116 (3000–4000 cells/well), human KB (2000–3000 cells/well) and MGC 803 (2000–3000 cells/well) were seeded into 96-well plates and treated with indicated concentrations of samples for 48 h, and then […] of MTT (10 mg/mL) was added. After incubation for 4 h at 37 °C, the purple formazan crystals (i.e., a reduced form of MTT) generated from viable cells were dissolved by adding 100 μL DMSO in each well. The plates were swirled gently for 10 min to dissolve the precipitate, and quantified by measuring the optical density (OD) of the plates at a wavelength of 490 nm on plate reader (TECAN infinite M1000). Each concentration was repeated in three wells and the same experimental conditions were provided for all compounds and MTT analysis was repeated three times for each cell line.

[3] = test system: HCT-116 (Human colorectal cells); test: MTT cytotoxicity assay, HCT-116; format: cell-based; conditions: MTT, 48 h, no irradiation, mean ± SD of three experiments
Description: as §1, §2, §3

[4] = test system: human KB (human nasopharyngeal carcinoma cells); test: MTT cytotoxicity assay, human KB; format: cell-based; conditions: 48 h, no irradiation, mean ± SD of three experiments
Description: as §1, §2, §3

[5] = test system: MGC-803 (human lung adenocarcinoma cell line); test: MTT cytotoxicity assay, MGC-803; format: cell-based; conditions: 48 h, no irradiation, mean ± SD of three experiments
Description: as §1, §2, §3

HCT-116 cells = test: Apoptosis and cell cycle analysis by flow cytometry (PI staining); format: cell-based, human; conditions: HCT-116, 48 h at IC50 concentration; untreated cells 35.32%
Description: Compared to the control (untreated cells), changes in the cell cycle distribution of treated HCT-116 cells were evident.
Figure 6 Inhibition of cell cycle progress in HCT-116 cells treated with compounds 8d, 8f, 8c and 8j for 48 h. Cells were fixed with ethanol and stained with PI. Cell cycle distribution was analyzed by flow cytometry. First peak represents sub-G1 peak, which was taken as the fraction of the apoptotic cell population. TEXT PRINTED IN THE PICTURE: 8d: Diploid: 100.00%; Dip G1: 87.24 % at 74.84; Dip G2: 7.42 % at 147.44; Dip S: 5.34 % | 8f: Diploid: 100.00%; Dip G1: 74.25 % at 73.13; Dip G2: 10.86 % at 144.07; Dip S: 14.89 % | 8c: Diploid: 100.00%; Dip G1: 82.72 % at 72.85; Dip G2: 6.28 % at 143.51; Dip S: 11.00% | 8j: Diploid: 100.00%; Dip G1: 15.12 % at 45.10; Dip G2: 52.47 % at 88.84; Dip S: 32.40%; Apoptosis: 4.01 % Mean: 33.84 | Control (−): Diploid: 100.00%; Dip G1: 35.32 % at 52.60; Dip G2: 19.20 % at 103.62; Dip S: 45.84% DOUBTS OF THE COPYIST ABOUT THIS PICTURE: Print is small throughout, so 3, 5, 6, 8 and 9 cannot be told apart with certainty in the values below; best readings are given. / 8d, Dip G1: 87.24 % at 74.84, the 8s uncertain / 8d, Dip S: 5.34, the 5 and 3 uncertain / 8f, Dip G2: 10.86 % at 144.07, the 8 and 6 uncertain / 8f, Dip S: 14.89, the 8 and 9 uncertain / 8c, Dip G1: 82.72 % at 72.85, the 8s and 5 uncertain / 8c, Dip G2: 6.28 % at 143.51, the 6, 8, 3 and 5 uncertain / 8j, Dip G2: 52.47 % at 88.84, the 5 and 8s uncertain / 8j, Apoptosis: 4.01 % Mean: 33.84, the 3s and 8 uncertain / Control (−), Dip G1: 35.32 % at 52.60, the 3s, 5s and 6 uncertain / Control (−), Dip G2: 19.20 % at 103.62, the 9, 3 and 6 uncertain / Control (−), Dip S: 45.84, the 5 and 8 uncertain / Control (−) is an untreated control, not a compound; it is included because results are printed with it. / G2/G1: 1.97 and %CV, printed in every plot, are left out as fit parameter and statistic.
Apoptosis was quantified by assessing the fraction of cells with sub-G1 DNA content by flow cytometry. The cells lines were treated with indicated concentrations of compounds […]. After incubated for 48 h, cells were washed twice with ice-cold PBS, fixed and permeabilized with ice-cold 70% ethanol at −20 °C overnight. The cells were treated with 100 μg/mL RNase A at 37 °C for 30 min after washed with ice-cold PBS, and finally stained with 1 mg/mL propidium iodide (PI) in the dark at 4 °C for 30 min. Analysis was performed with the system software (Cell Quest; BD Biosciences, Franklin Lakes, NJ, USA).

CT-DNA [6] = test: Circular dichroism spectra of CT-DNA; format: binding, calf; conditions: [compound]/[DNA] 1:10; 1.5 × 10^−4 M DNA, 1.5 × 10^−5 M compound
Description: CD absorption spectra of DNA were measured in TBS at a 100 nm/min scan rate in the wavelength range from 200 to 500 nm, with 1.5 × 10^−4 M DNA in the absence and presence of each compound of 1.5 × 10^−5 M, respectively. The CD signal of TBS was taken as the background and subtracted from the spectra. All the spectroscopic experiments were performed at 25 °C.

GelRed/CT-DNA = test: GelRed-DNA competitive binding (fluorescence quenching); parameters: species or system calf; conditions: I0/I vs [Q]; [GelRed]/[DNA] = 1:10, ex 350 nm, em 590 nm
[7] = Homo sapiens, HUVEC, light or radiation study
[8] = Homo sapiens, HCT-116, light or radiation study
[9] = Homo sapiens, light or radiation study
[10] = Homo sapiens, MGC-803, light or radiation study

Row | Compound | KSV (Stern-Volmer constant) (CT-DNA [1]) | IC50 [2, 7] | IC50 [3, 8] | IC50 [4, 9] | IC50 [5, 10] | IC50 [2] | IC50 [3] | IC50 [4] | IC50 [5] | G1-phase population (HCT-116 cells) | Negative AI decrease (CD absorption peak of CT-DNA at 247 nm) (CT-DNA [6]) | Positive AI decrease (CD absorption peak of CT-DNA at 281 nm) (CT-DNA [6]) | Kq (quenching constant of GelRed bound to DNA) (GelRed/CT-DNA)
1 | Cc1cc(=O)oc2cc(O)ccc12 [Compound 2, 7-Hydroxy-4-methyl-2H-chromen-2-one, reference compound] | 442 M⁻¹ | > 100 µM | > 100 µM | > 50 µM | > 100 µM | – | – | – | – | – | – | – | –
2 | O=c1[nH]cc(F)c(=O)[nH]1 [Compound 5-Fu, 5-fluoro-2,4(1H,3H)pyrimidinedione, reference compound] | – | 56 ± 3.21 µM | 10.1 ± 2.2 µM | 1.23 ± 1.09 µM | 15.3 ± 1.96 µM | – | – | – | – | – | – | – | –
3 | CCOP(=O)(OCC)C(NC(=O)CCOc1ccc2c(C)cc(=O)oc2c1)c1ccccc1 (stereo not shown) [Compound 8a, Diethyl(3-(4-methyl-2-oxo-2H-chromen-7-yloxy)propanamido)(phenyl)methylphosphonate] | 340 M⁻¹ | – | – | – | – | > 100 µM | > 100 µM | > 50 µM | > 100 µM | – | – | – | –
4 | CCOP(=O)(OCC)C(NC(=O)CCOc1ccc2c(C)cc(=O)oc2c1)c1ccccc1F (stereo not shown) [Compound 8b, Diethyl(3-(4-methyl-2-oxo-2H-chromen-7-yloxy)propanamido)(2-fluorophenyl)methylphospho-nate] | 299 M⁻¹ | – | – | – | – | > 100 µM | > 100 µM | > 50 µM | > 100 µM | – | – | – | –
5 | CCOP(=O)(OCC)C(NC(=O)CCOc1ccc2c(C)cc(=O)oc2c1)c1ccccc1Cl (stereo not shown) [Compound 8c, Diethyl(3-(4-methyl-2-oxo-2H-chromen-7-yloxy)propanamido)(2-chlorophenyl)methylphospho-nate] | 481 M⁻¹ | – | – | – | – | > 100 µM | 88.7 ± 1.69 µM | 33.4 ± 1.2 µM | 79.4 ± 3.82 µM | 82.72% | – | – | –
6 | CCOP(=O)(OCC)C(NC(=O)CCOc1ccc2c(C)cc(=O)oc2c1)c1ccc(Cl)cc1 (stereo not shown) [Compound 8d, Diethyl(3-(4-methyl-2-oxo-2H-chromen-7-yloxy)propanamido)(4-chlorophenyl)methylphospho-nate] | 429 M⁻¹ | – | – | – | – | > 100 µM | 86.2 ± 1.86 µM | 7.8 ± 5.36 µM | 76.9 ± 3.89 µM | 87.24% | – | – | –
7 | CCOP(=O)(OCC)C(NC(=O)CCOc1ccc2c(C)cc(=O)oc2c1)c1ccccc1Br (stereo not shown) [Compound 8e, Diethyl(3-(4-methyl-2-oxo-2H-chromen-7-yloxy)propanamido)(2-bromophenyl)methylphospho-nate] | 475 M⁻¹ | – | – | – | – | > 100 µM | 90.5 ± 1.09 µM | 9.55 ± 0.09 µM | 67.5 ± 3.26 µM | – | – | – | –
8 | CCOP(=O)(OCC)C(NC(=O)CCOc1ccc2c(C)cc(=O)oc2c1)c1ccc(Br)cc1 (stereo not shown) [Compound 8g, Diethyl(3-(4-methyl-2-oxo-2H-chromen-7-yloxy)propanamido)(4-bromophenyl)methylphosph-onate] | 410 M⁻¹ | – | – | – | – | > 100 µM | 88.5 ± 4.62 µM | 7.27 ± 6.18 µM | 85.6 ± 2.83 µM | – | – | – | –
9 | CCOP(=O)(OCC)C(NC(=O)CCOc1ccc2c(C)cc(=O)oc2c1)c1ccccc1OC (stereo not shown) [Compound 8h, Diethyl(3-(4-methyl-2-oxo-2H-chromen-7-yloxy)propanamido)(2-methoxyphenyl)methylphos-phonate] | 357 M⁻¹ | – | – | – | – | > 100 µM | 23.7 ± 5.89 µM | – | 36.9 ± 1.96 µM | – | 28.5% | 34.5% | 2410 M⁻¹
10 | CCOP(=O)(OCC)C(NC(=O)CCOc1ccc2c(C)cc(=O)oc2c1)c1ccc2ccccc2c1 (stereo not shown) [Compound 8i, Diethyl(3-(4-methyl-2-oxo-2H-chromen-7-yloxy)propanamido)(naphthalen-2-yl)methylphosph-onate] | 18100 M⁻¹ | – | – | – | – | > 100 µM | 38.9 ± 0.04 µM | – | 41.5 ± 2.86 µM | – | – | – | –
